# Data taken from patent US20260242362A1, “PREPARATION OF 3,4,5-TRISUBSTITUTED TRIAZOLES AND METHODS OF USING THE SAME” (University of Florida Research Foundation, Incorporated, priority 2023, published 2026).
# Columns and labels:
# [1] = mouse, microsomes
# Description: Microsomal stability was determined using mouse hepatic microsomes and LC/MS detections over time (Zhou et al., 2013, 22).
# kappa opioid receptor [2] = target: T1, kappa opioid receptor (Homo sapiens, UniProt P41145); assay: GTPγS binding assay (G-protein activation); format: biochemical; settings: for EC50: 3 parameter nonlinear regression, nc = did not converge; for GTPγS Emax (% U60): relative to U69,593 = 100% Emax; for GTPγS maximum stimulation observed at 10 μM (starred Emax cells): * compounds that did not reach plateau
# Target sequence in this assay (P41145 whole entry, the tested form may be a part): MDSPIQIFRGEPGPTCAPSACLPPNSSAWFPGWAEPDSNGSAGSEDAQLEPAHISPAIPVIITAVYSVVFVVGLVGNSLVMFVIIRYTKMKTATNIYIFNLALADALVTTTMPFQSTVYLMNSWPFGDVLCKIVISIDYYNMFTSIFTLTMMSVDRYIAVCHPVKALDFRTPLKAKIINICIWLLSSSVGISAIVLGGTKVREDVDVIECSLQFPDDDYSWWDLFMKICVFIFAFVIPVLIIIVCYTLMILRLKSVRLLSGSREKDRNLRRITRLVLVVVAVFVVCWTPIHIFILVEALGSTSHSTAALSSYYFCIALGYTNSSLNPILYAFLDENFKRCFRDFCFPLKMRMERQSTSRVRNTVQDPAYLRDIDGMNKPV
# kappa opioid receptor [3] = target: T1, kappa opioid receptor; assay: PathHunter DiscoverX β-arrestin2 recruitment (enzyme fragment complementation) assay; format: cell-based; settings: for EC50: 3 parameter nonlinear regression, nc = did not converge, read-out: β-arrestin2 EC50; for β-arrestin2 Emax (% U60): relative to U69,593 = 100% Emax, ~ did not plateau at 100%; for β-arrestin2 maximum stimulation observed at 10 μM (starred Emax cells / % max at 10 uM): * compounds that did not reach plateau
# Target sequence in this assay (P41145 whole entry, the tested form may be a part): as above
# Target sequence in this assay (P32121 whole entry partner, the tested form may be a part): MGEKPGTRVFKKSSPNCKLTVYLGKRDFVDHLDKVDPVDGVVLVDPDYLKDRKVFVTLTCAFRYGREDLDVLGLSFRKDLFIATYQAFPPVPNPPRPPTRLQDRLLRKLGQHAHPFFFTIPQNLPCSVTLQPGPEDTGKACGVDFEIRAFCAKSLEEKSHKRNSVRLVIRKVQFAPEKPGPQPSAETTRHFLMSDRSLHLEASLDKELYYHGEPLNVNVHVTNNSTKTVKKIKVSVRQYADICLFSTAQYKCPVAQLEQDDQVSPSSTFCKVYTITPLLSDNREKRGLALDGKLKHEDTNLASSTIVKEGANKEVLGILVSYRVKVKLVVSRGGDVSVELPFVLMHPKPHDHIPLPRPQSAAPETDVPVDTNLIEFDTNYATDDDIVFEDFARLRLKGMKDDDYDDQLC
Compound,Microsomal Stability [1],EC50 (kappa opioid receptor [2]) [nM],GTPγS Emax (% U60) (kappa opioid receptor [2]),EC50 (kappa opioid receptor [3]) [µM],β-arrestin2 Emax (% U60) (kappa opioid receptor [3]),β-arrestin2 maximum stimulation observed at 10 μM (starred Emax cells / % max at 10 uM) (kappa opioid receptor [3]),other results
OC(Cc1nnc(-c2ccccn2)n1Cc1ccco1)c1ccccc1 (stereo not shown) [Compound 45],20.7 min,,,,,,
Cc1ccc(CCCc2nnc(-c3ccccn3)n2Cc2ccco2)cc1C(F)(F)F [Compound 3],1.6,812,74,,,,
Cc1ccc(CCc2nnc(-c3ccccn3)n2CCc2ccccc2)cc1C(F)(F)F [Compound 13a],,1940,,,,,
Cc1ccc(CCc2nnc(-c3ccc4ccccc4n3)n2Cc2cccs2)cc1C(F)(F)F [Compound 22],2.2 min,,,> 10,~100,,
Cc1ccc(/C=C/c2nnc(-c3nccn3C)n2Cc2nccs2)cc1C(F)(F)F [Compound 51],14.5 min,309,,1.68,34,,
Cc1ccc(CCc2nnc(-c3ccccn3)n2-c2ccc3ccccc3c2)cc1C(F)(F)F [Compound 12a],,10300,,,,,
Cc1ccc(CCc2nnc(-c3ccccn3)n2Cc2ncco2)cc1C(F)(F)F [Compound 5a],,38,,0.532,,,
Cc1ccc(CCc2nnc(-c3cccn3C)n2Cc2cccs2)cc1C(F)(F)F [Compound 23],3.1 min,36,,1.32,,,
Cc1ccc(CCc2nnc(-c3ccccn3)n2Cc2ccsc2)cc1C(F)(F)F [Compound 6],1.0 min,12,,0.813,,,
OC(Cc1ccccc1)c1nnc(-c2ccccn2)n1Cc1ccco1 (stereo not shown) [Compound 41],17.4 min,,,,,0* % U60,KOR potency / activity in words (SAR commentary) (kappa opioid receptor [2]): loss in potency; GTPγS maximum stimulation observed at 10 μM (starred Emax cells) (kappa opioid receptor [2]): 22* % U60
c1ccc(-c2nnc(CCc3ccc4ccccc4c3)n2Cc2cccs2)nc1 [Compound 36],2.4 min,,,,,,
Cn1ccnc1-c1nnc(CCc2ccc(Cl)cc2)n1Cc1nccs1 [Compound 53],2.4 min,2250,94,5.02,81,,
Cc1ccc(/C=C/c2nnc(-c3nccn3C)n2Cc2cccs2)cc1C(F)(F)F [Compound 50],12.2 min,1010,77,55.8,,38* % U60,
c1ccc(-c2nnc(CCc3cccc4ccccc34)n2Cc2cccs2)nc1 [Compound 35],1 min,,,> 10,67,,
Cc1ccc(CCc2nnc(-c3ccccn3)n2Cc2ccccc2)cc1C(F)(F)F [Compound 8],0.9 min,,,6.34,180,,
Clc1ccc(CCc2nnc(-c3ccccn3)n2Cc2ccco2)cc1 [Compound 52],3.3 min,99,84,4.53,191,,
Cc1ccc(CCCN(CCCc2ccco2)C(=O)c2ccccn2)cc1C(F)(F)F [Compound 64],1.0 min,3060,88,> 10,,26* % U60,
Cc1ccc(CCc2nnc(-c3nccn3C)n2Cc2ccco2)cc1C(F)(F)F [Compound 54],1.6 min,69,92,0.788,112,,"Emax (weak partial agonist) (kappa opioid receptor [3]; text b193, assay not named): about 26%"
Cc1ccc(CCc2nnc(-c3ccccn3)n2Cc2cccnc2)cc1C(F)(F)F [Compound 11],1.7 min,70,90,0.479,105,,
Cc1ccc(CN(Cc2ccco2)C(=O)c2ccccn2)cc1C(F)(F)F [Compound 57],1.8 min,368,92,3.13,87,,
Cc1ccc(CCc2nnc(-c3ccccn3)n2Cc2ccccn2)cc1C(F)(F)F [Compound 10],1.0 min,,784,7.69,125,,
c1ccc(-c2nnc(C3CCc4ccccc4C3)n2Cc2cccs2)nc1 (stereo not shown) [Compound 37],13.1 min,,,,,,
Cc1ccc(/C=C/c2nnc(-c3ccccn3)n2Cc2nccs2)cc1C(F)(F)F [50 (UNC9078)],10.1 min,767,81.6,,,51.6 (% max at 10 uM) % U60,
Cc1ccc(CCc2nnc(-c3ccncn3)n2Cc2cccs2)cc1C(F)(F)F [Compound 18],1.1 min,,,> 10,,66* % U60,

Compound,Microsomal Stability [1],EC50 (kappa opioid receptor [2]) [nM],GTPγS Emax (% U60) (kappa opioid receptor [2]),EC50 (kappa opioid receptor [3]) [µM],β-arrestin2 Emax (% U60) (kappa opioid receptor [3]),β-arrestin2 maximum stimulation observed at 10 μM (starred Emax cells / % max at 10 uM) (kappa opioid receptor [3]),other results
FC(Cc1ccccc1)c1nnc(-c2ccccn2)n1Cc1ccco1 (stereo not shown) [Compound 43],9.1 min,3820,,> 10,,7* % U60,
Fc1ccc(CCc2nnc(-c3ccccn3)n2Cc2cccs2)cc1 [Compound 26],3.1 min,288,92,3.02,75,,
Cc1ccc(/C=C/c2nnc(-c3ccccn3)n2Cc2cccs2)cc1C(F)(F)F [Compound 47],22.0 min,,83,,,36* % U60,KOR potency / activity in words (SAR commentary) (kappa opioid receptor [2]): completely inactive
FC(Cc1nnc(-c2ccccn2)n1Cc1cccs1)c1ccccc1 (stereo not shown) [Compound 46],69.7 min,1060,,> 10,,64* % U60,
Cc1cc(CCc2nnc(-c3ccccn3)n2Cc2cccs2)ccc1C(F)(F)F [Compound 39a],,3.1,,,,,
Cc1ccc(CCc2nnc(-c3ccccc3)n2Cc2cccs2)cc1C(F)(F)F [Compound 14],1.8 min,,,> 10,~100,,
Cc1ccc(/C=C/c2nnc(-c3nccn3C)n2Cc2cccs2)cc1C(F)(F)F [52 (UNC9166)],12.2 min,349,74.2,55.8,,37.7 (% max at 10 uM) % U60,
Cc1ccc(CCc2nnc(-c3ccccn3)n2-c2cccc3ccccc23)cc1C(F)(F)F [Compound 11a],,2650,,,,,
Cc1ccc(CCc2nnc(-c3ccccn3)n2Cc2ccncc2)cc1C(F)(F)F [Compound 12],0.9 min,,,,,12* % U60,GTPγS maximum stimulation observed at 10 μM (starred Emax cells) (kappa opioid receptor [2]): 48* % U60
C(=C/c1nnc(-c2ccccn2)n1Cc1ccco1)/c1ccccc1 [Compound 38],19.4 min,,,,,0* % U60,GTPγS maximum stimulation observed at 10 μM (starred Emax cells) (kappa opioid receptor [2]): 3* % U60
Cc1ccc(/C=C/c2nnc(-c3nccn3C)n2Cc2ccco2)cc1C(F)(F)F [Compound 49],14.1 min,,76,,,17* % U60,
FC(F)(Cc1ccccc1)c1nnc(-c2ccccn2)n1Cc1ccco1 [Compound 44],,,,,,,KOR potency / activity in words (SAR commentary) (kappa opioid receptor [2]): completely inactive
Clc1ccc(CCc2nnc(-c3ccccn3)n2Cc2cccs2)cc1 [Compound 27],3.3 min,35,93,3.74,102,,
Cc1ccc(CCc2nnc(-c3ccccn3)n2CC2CC2)cc1C(F)(F)F [Compound 13],0.9 min,,,,,,
Cc1ccc(CCc2nnc(-c3ncccn3)n2Cc2cccs2)cc1C(F)(F)F [Compound 17],0.8 min,,,2.18,150,,
FC(F)(F)c1ccccc1CCc1nnc(-c2ccccn2)n1Cc1cccs1 [Compound 31],3.0 min,,,> 10,44,,
Cc1ccc(/C=C/c2nnc(-c3nccn3C)n2Cc2ccco2)cc1C(F)(F)F [51 (UNC9012)],,,76.1,,,17.3 (% max at 10 uM) % U60,
Cc1ccc(CCc2nnc(-c3ncccc3C)n2Cc2cccs2)cc1C(F)(F)F [Compound 19],1.1 min,,,1.55,117,,
Cc1ccc(CCc2nnc(-c3ccc4ccccc4c3)n2Cc2cccs2)cc1C(F)(F)F [Compound 21],1.3 min,,,,,16* % U60,
COc1ccc(CCc2nnc(-c3ccccn3)n2Cc2cccs2)cc1 [Compound 25],5.6 min,,,> 10,124,,
Cc1ccc(CCc2nnc(-c3ccccn3)n2-c2ccccc2)cc1C(F)(F)F,,,,,,,KOR potency / activity in words (SAR commentary) (kappa opioid receptor [2]): potency was completely lost
Cc1ccc(CCc2nnc(-c3ccccn3)n2CC2CCCO2)cc1C(F)(F)F (stereo not shown) [Compound 17a],,104,,5.43,,,
Cc1ccc(CCc2nnc(-c3cccc4ccccc34)n2Cc2cccs2)cc1C(F)(F)F [Compound 20],0.9 min,,,> 10,,76* % U60,
